Experiments:
PfLysRS = PfLysRS (Plasmodium falciparum, UniProt Q8IDJ8); conditions: Hoepfner et al, Cell Host Microbe, 2012; cited from earlier work
[1] = target: Cryptosporidium parvum lysyl t-RNA synthetase (Cp KRS) (Cryptosporidium parvum, UniProt Q5CR27); experiment: In vitro inhibition of Cryptosporidium lysyl tRNA synthetase (KRS), Biomol green phosphate detection; assay type: biochemical; conditions: 300 nM CpKRS, 500 μM ATP, 1.2 mM L-Lysine, 8 h room temperature; read-out: C. parvum KRS pIC50 (converted)
Cryptosporidium parvum lysyl t-RNA synthetase (Cp KRS), sequence (Q5CR27 entry or part of it): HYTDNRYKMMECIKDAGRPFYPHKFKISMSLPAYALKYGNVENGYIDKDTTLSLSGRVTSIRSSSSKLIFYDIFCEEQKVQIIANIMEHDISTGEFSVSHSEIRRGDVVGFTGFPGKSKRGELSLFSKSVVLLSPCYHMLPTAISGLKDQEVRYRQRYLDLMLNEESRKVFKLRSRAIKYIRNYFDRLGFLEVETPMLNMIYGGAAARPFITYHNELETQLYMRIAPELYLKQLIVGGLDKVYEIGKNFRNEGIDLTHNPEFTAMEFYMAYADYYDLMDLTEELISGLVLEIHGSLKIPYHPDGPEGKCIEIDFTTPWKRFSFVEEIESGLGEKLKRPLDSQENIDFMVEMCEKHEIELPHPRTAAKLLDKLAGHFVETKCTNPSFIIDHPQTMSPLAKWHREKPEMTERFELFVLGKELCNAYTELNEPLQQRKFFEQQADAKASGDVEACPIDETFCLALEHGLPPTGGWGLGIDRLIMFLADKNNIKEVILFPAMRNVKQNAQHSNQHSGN
Text: The protein expression and purification method for recombinant CpKRS was described in Baragana et aL, PNAS, 2019, 116 (4), 7015-7020 and will be summarised below.
The C. parvum KRS had 45 residues removed at the N-terminus. All amplicons were cloned into the pAVA0421 expression vector using the ligation independent cloning (LIC) method. Recombinant plasmids were transformed into Rosetta BL21(DE3) competent cells and plated on LB agar plates with ampicillin, carbenicillin, and chloramphenicol selection. Clones were expressed using previously reported autoinduction methods and scaled to 2-litre cultures in a shake flasks. Cell pellets were harvested and lysed with 100 mM HEPES/150 mM NaCl/5% Glycerol/20 mM imidazole/0.5 mM TCEP pH 7.5/DNase/Complete inhibitor tablets) using a Cell Disrupter (Constant Systems) at 30 KPSI and centrifuged at 40,000 g for 20 min remove cell debris. The supernatant was loaded onto a 5 ml HiTrap Ni HP column that had been equilibrated with Buffer A (100 mM HEPES/150 mM NaCl/5% Glycerol/20 mM imidazole/0.5 mM TCEP pH 7.5) at 5 ml/min using an AKTA Pure system. Once loaded the column was washed with 10 column volumes of buffer A. A 5% step of Buffer B (100 mM HEPES/150 mM NaCl/5% Glycerol/500 mM imidazole/0.5 mM TCEP pH 7.5) was then used to wash off His-rich contaminating proteins. A linear gradient of 5-50% B was used to elute the protein. Approximately 287 mg of protein was present in the fractions containing the CpKRS protein. The sample was then concentrated to approximately 30 ml, passed through a 0.2 μm filter, before loading onto a XK26/60 Superdex 200 column using an AKTA Pure system at 4° C. at 2 ml/min 10 ml at a time. The eluted protein was pooled then frozen at −80° C. The concentration of the protein was 1.3 mg/ml. Sometimes the protein was cleaved with PreScission protease overnight, a second Ni column performed in flow through mode to removed uncleaved protein. GST beads were then added to remove the PreScission Protease. The protein was then gel filtered as descripted above.
Assay Method for Measurement of In Vitro Inhibition of Cryptosporidium lysyl tRNA Synthetase (KRS)
Potency of compounds was determined in 10 points dose-response inhibition curves. Compounds were transferred into 384-well clear bottom plates (Greiner Bio-One, 781101) using an Echo 550 acoustic dispenser (Labcyte). Using an automatic liquid dispenser, 50 μL reaction mixes were prepared by adding 25 μL of substrate mix into all wells followed by the addition of 25 μL enzyme mix into compounds and no inhibition control wells (final reaction: 100 mM HEPES, pH 7.4, 20 mM MgCl2, 1 mM DTT, 500 μM ATP, 1.2 mM L-Lysine, 300 nM CpKRS and 0.5 U/mL Pyrophosphatase). Complete inhibition control reactions were performed in the absence of enzyme and the plates were incubated at room temperature for 8 h. Reactions were stopped by the addition of Biomol green (50 μL: Enzo Life Sciences) with the amount of free phosphate detected by measuring absorbance (650 nm) after 20 min further incubation (BMG Pherastar plate reader). Counter screen assays to eliminate direct inhibition of pyrophosphatase were performed using 0.5 U/mL pyrophosphatase and 3 μM pyrophosphate as substrate in the same assay buffer (100 mM HEPES, pH 7.4, 20 mM MgCl2, 1 mM DTT) for 8 hours at room temperature. Biomol green was added and incubated for 20 min before detection as above. Samples were run in duplicate and data was processed and analysed using ActivityBase (IDBS).

[2] = test system: Hep G2 (Human hepatocyte carcinoma); experiment: In vitro inhibition of HepG2 cells (cytotoxicity); assay type: cell-based; conditions: read-out: Hs HepG2 PEC50 (converted)
Text: Assay Method for Measurement of In Vitro Inhibition of HepG2 Cells (Cytotoxicity)
These experiments were run in accordance with the method of Mersch-Sundermann V et. al. Toxicology 2004, 198:329-340

[3] = target: T1, Human lysyl tRNA Synthetase (KRS) (Homo sapiens, UniProt Q15046); experiment: In vitro inhibition of human lysyl tRNA synthetase (KRS), Biomol green phosphate detection; assay type: biochemical; conditions: 3.5 μM ATP, 6 μM L-Lysine, 5 h room temperature; read-out: Hs KRS pIC50 (converted)
T1 construct: His tag with PreScission site (His PP pET15b); made in house; host or cells: E. coli BL21 (DE3)
T1 sequence (Q15046 whole entry): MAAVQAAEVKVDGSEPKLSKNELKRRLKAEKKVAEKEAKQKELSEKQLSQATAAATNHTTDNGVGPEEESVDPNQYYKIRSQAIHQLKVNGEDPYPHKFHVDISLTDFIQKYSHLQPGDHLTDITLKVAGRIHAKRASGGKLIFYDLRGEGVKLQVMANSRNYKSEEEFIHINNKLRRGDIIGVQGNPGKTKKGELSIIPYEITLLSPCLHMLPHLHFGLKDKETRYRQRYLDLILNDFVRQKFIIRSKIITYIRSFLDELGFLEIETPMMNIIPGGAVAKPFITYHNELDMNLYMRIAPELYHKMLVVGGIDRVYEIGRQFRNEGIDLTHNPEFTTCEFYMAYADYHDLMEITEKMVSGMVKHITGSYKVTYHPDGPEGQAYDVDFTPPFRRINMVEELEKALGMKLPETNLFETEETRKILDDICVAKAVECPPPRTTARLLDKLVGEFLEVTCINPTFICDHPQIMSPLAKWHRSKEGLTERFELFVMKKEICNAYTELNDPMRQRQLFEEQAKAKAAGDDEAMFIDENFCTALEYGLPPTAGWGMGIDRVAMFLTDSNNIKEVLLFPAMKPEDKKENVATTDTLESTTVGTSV
Experimental: The gene coding for Human KRS, codon optimized for expression in E. coli, was obtained from Genscript and cloned into a His PP pET15b vector using Nde1 and Xho1 restriction sites. The resulting vector was used to transform BL21 (DE3) competent cells for protein expression. A 120 ml overnight culture was set up and grown at 37° C. 200 rpm for 16 h and used the next day to inoculate 6 litres of Autoinduction+AMP medium. This culture was grown at 37° C. for 4 h then 20° C. for 20 h. The cells were harvested by centrifugation at 3,500 g for 30 min then stored at −20° C. The resulting cell pellet was 50 g. Lysis buffer (150 ml, 25 mM HEPES/500 mM NaCl/20 mM imidazole/2 mM DTT/10% glycerol pH 7.5/protease inhibitor tablets/DNAase) was added and the pellets for defrosted at room temperature for approximately 10 min. The slurry was then passed through a Cell Disrupter (Constant Systems) set at […] to lyse the cells. The sample was then centrifuged at 40,000 g for 20 min. The supernatant was then filtered using syringe filters to 0.45 μm. The supernatant was loaded onto a 5 ml HiTrap Ni HP column that had been equilibrated with BufferA (25 mM HEPES/500 mM NaCl/20 mM Imidazole/2 mM DTT/10% Glycerol pH 7.5) at 5 ml/min using an AKTA Pure system. Once loaded the column was washed with 10 column volumes buffer A. A 5% step of Buffer B (25 mM HEPES/500 mM NaCl/500 mM Imidazole/2 mM DTT/10% Glycerol pH 7.5) was then used to wash off His rich contaminating proteins. A gradient of 5-50% B was used to elute the protein. Approximately 55 mg of protein was present in the fractions containing the HsKRS protein. The sample was then passed through a 0.2 μm filter, before loading onto a XK26/60 Superdex 200 column equilibrated with Buffer C (25 mM HEPES/150 mM NaCl/2 mM DTT/10% glycerol pH 7.0) using an AKTA Pure system at 4° C. at 2 ml/min. The sample was then dialyzed into 25 mM HEPES/500 mM NaCl//2 mM DTT/10% glycerol/0.25% azide pH 7.0. The protein was concentrated to 1 mg/ml and frozen at −80° C. Approximately 23 mg of protein was produced.
Assay Method for Measurement of In Vitro Inhibition of Human lysyl tRNA Synthetase (KRS)
Potency of compounds was determined in 10 points dose-response inhibition curves. Compounds were transferred into 384-well clear bottom plates (Greiner Bio-One, 781101) using an Echo 550 acoustic dispenser (Labcyte). Using an automatic liquid dispenser, 50 μL reaction mixes were prepared by adding 25 μL of substrate mix into all wells followed by the addition of 25 μL enzyme mix into all wells (final reaction: 30 mM Tris-HCl, pH 8.0, 40 mM MgCl2, 140 mM NaCl, 30 mM KCl, 0.01% Brij-35, 1 mM DTT, 3.5 μM ATP, 6 μM L-Lysine, 200 nM […] and 0.5 U/mL Pyrophosphatase). Complete inhibition control reactions were performed in the presence of 100 μM of control compoundand the plates were incubated at room temperature for 5 h. Reactions were stopped by the addition of Biomol green (50 μL: Enzo Life Sciences) with the amount of free phosphate detected by measuring absorbance (650 nm) after 20 min further incubation (BMG Pherastar plate reader). Counter screen assays to eliminate direct inhibition of pyrophsphatase were performed using 0.5 U/mL pyrophosphatase and 3 μM pyrophosphate as substrate in the same assay buffer (30 mM Tris-HCl, pH 8.0, 40 mM MgCl2, 140 mM NaCl, 30 mM KCl, 0.01% Brij-35, 1 mM DTT) for 5 hours at room temperature. Biomol green was added and incubated for 20 min before detection as above. Samples were run in duplicate and data was processed and analysed using ActivityBase (IDBS).

Cryptosporidium parvum = experiment: In vitro inhibition of Cryptosporidium (method of Bessoff et al.); assay type: cell-based; conditions: read-out: C. parvum PEC50 (converted)
Text: Assay Method for Measurement of In Vitro Inhibition of Cryptosporidium
These experiments were run in accordance with the method of Besssoff et. al. Antimicrob. Agents Chemother. 2013, 57:1804-1814. Results from these experiments are provided in the Experimental Results hereinafter.

Cryptosporidium = conditions: Cryptosporidium-HIV co-infected patients not co-treated with HIV antiretroviral therapy; cited from earlier work

PfLysRS, sequence (Q8IDJ8 1-583): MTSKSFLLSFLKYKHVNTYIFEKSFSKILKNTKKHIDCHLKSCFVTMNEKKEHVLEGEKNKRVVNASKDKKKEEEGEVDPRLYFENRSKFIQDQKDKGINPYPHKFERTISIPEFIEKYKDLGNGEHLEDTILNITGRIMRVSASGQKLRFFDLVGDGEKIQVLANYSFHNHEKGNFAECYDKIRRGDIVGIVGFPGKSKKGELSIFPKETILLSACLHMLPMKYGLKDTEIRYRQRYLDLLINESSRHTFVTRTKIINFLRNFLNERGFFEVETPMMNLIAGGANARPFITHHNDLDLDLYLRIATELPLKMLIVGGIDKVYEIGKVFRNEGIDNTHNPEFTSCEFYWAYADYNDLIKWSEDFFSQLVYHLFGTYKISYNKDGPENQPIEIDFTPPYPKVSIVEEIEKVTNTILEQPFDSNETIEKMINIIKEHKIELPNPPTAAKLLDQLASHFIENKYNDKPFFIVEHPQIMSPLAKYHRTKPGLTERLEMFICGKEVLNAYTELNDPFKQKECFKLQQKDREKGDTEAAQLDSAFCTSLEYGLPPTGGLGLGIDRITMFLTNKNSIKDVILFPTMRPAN

IC50 [1] [µM]	IC50 [3] [µM]	EC50 (Cryptosporidium parvum) [nM]	SMILES	selectivity for PfLysRS vs HsLysRS (PfLysRS)	EC50 [2] [µM]	efficacy in clinical trials (Cryptosporidium)
> 50.1	> 100	–	Nc1nc2c(c(C(F)(F)F)n1)C(=O)N(C[C@H]1CCC[C@@H](C(F)(F)F)C1)C2 [Compound 6, 2-amino-4-(trifluoromethyl)-6-(((1S,3R)-3-(trifluoromethyl)cyclohexyl)methyl)-6,7-dihydro-5H-pyrrolo[3,4-d]pyrimidin-5-one]	–	> 100	–
15.8	63.1	–	Nc1nc2c(c(C(F)(F)F)n1)C(=O)N(C[C@H]1CCC[C@H](C(F)(F)F)C1)C2 [Compound 7, 2-amino-4-(trifluoromethyl)-6-(((1S,3S)-3-(trifluoromethyl)cyclohexyl)methyl)-6,7-dihydro-5H-pyrrolo[3,4-d]pyrimidin-5-one]	–	79.4	–

Continued, molecule first:

SMILES	IC50 [1] [µM]	IC50 [3] [µM]	EC50 (Cryptosporidium parvum) [nM]	selectivity for PfLysRS vs HsLysRS (PfLysRS)	EC50 [2] [µM]	efficacy in clinical trials (Cryptosporidium)
C[C@H]1CCC[C@H](C[C@H]2Cc3cc(O)cc(O)c3C(=O)O2)O1 [Cladosporin, cladosporin]	–	–	–	more than 100 fold	–	–
Nc1nc2c(c(C(F)(F)F)n1)C(=O)N(C[C@@H]1CCC[C@@H](C(F)(F)F)C1)C2 [Compound 5, 2-amino-4-(trifluoromethyl)-6-(((1R,3R)-3-(trifluoromethyl)cyclohexyl)methyl)-6,7-dihydro-5H-pyrrolo[3,4-d]pyrimidin-5-one]	1.58	20	50.1	–	15.8	–
CC(=O)Oc1ccccc1C(=O)Nc1ncc([N+](=O)[O-])s1 [Nitazoxanide]	–	–	–	–	–	ineffective
